# Data published in PMC6979384, “Characterization of the plant homeodomain (PHD) reader family for their histone tail interactions” (Epigenetics & Chromatin, 2020).
# Where no end group is shown, it is not given here. [ ]: non-standard residue; d: D form. Lys(Me3) = C[N+](C)(C)CCCC[C@H](N)C(=O)O
# Key:
# Assay in all cases: Histone peptide microarray
# Assay type in all cases: binding, human
# Conditions in all cases: total n = 4
# KDM7A = test system: KDM7A
# Outline: (§1)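 Steps: express and purify GST-tagged PHD reader; incubate 0.5 μM protein on a peptide microarray (293 histone peptides, single or combined PTMs) following an optimized protocol; average signal across 4 replicates.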
# PHF13 = test system: PHF13
# Outline: as §1
# PHF2 = test system: PHF2
# Outline: as §1
# KDM5A (3) = test system: KDM5A (3)
# Outline: as §1
# RAG2 = test system: RAG2
# Outline: as §1
# TAF3 = test system: TAF3
# Outline: as §1
# ING5 = test system: ING5
# Outline: as §1
# CHD4 (PPCC) = test system: CHD4 (PPCC)
# Outline: as §1
# KDM5B (1) = test system: KDM5B (1)
# Outline: as §1
# CHD5 (PCC) = test system: CHD5 (PCC)
# Outline: as §1
# MLL5 = test system: MLL5
# Outline: as §1
# PHF23 = test system: PHF23
# Outline: as §1
# DPF2 (PPC2W2) = test system: DPF2 (PPC2W2)
# Outline: as §1
# ING1 = test system: ING1
# Outline: as §1
# PHRF1 (RP) = test system: PHRF1 (RP)
# Outline: as §1
# ING4 = test system: ING4
# Outline: as §1
# MORC3 (CW) = test system: MORC3 (CW)
# Outline: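 GST-tagged PHD readers, 0.5 μM, probed on a microarray of 293 synthetic histone peptides carrying single or combinatorial PTMs (optimized Petell protocol). Signals are averaged over 4 replicates and expressed as relative binding.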
# ING2 = test system: ING2
# Outline: as §1
# PHF8 = test system: PHF8
# Outline: as §1
# TRIM66 (PB) = test system: TRIM66 (PB)
# Outline: as §1
# DIDO1 = test system: DIDO1
# Outline: as §1
# KDM4C (TTP) = test system: KDM4C (TTP)
# Outline: as §1
# PHF21A = test system: PHF21A
# Outline: as §1
# CHD5 (PPCC) = test system: CHD5 (PPCC)
# Outline: as §1
# KDM5A (1) = test system: KDM5A (1)
# Outline: as §1
# KDM5B (3) = test system: KDM5B (3)
# Outline: as §1
# SP140L = test system: SP140L
# Outline: as §1
# BAZ2B = test system: BAZ2B
# Outline: as §1
# BPTF (PB) = test system: BPTF (PB)
# Outline: as §1
# ING3 = test system: ING3
# Outline: as §1
# AIRE (PP) = test system: AIRE (PP)
# Outline: as §1
# [1] = sheet "Array Heatmap", GST-tagged reader, histone peptide array
substance,measurement,setting,value
H3K4me2 + K9ac + K18ac: H3 1-20,Array Heatmap signal (histone peptide microarray),"KDM7A; GST-tagged KDM7A, sheet Array Heatmap, each array performed twice",0.3188
same,Array Heatmap signal (histone peptide microarray),"PHF13; GST-tagged PHF13, sheet Array Heatmap, each array performed twice",0.5893
same,Array Heatmap signal (histone peptide microarray),"PHF2; GST-tagged PHF2, sheet Array Heatmap, each array performed twice",0.8135
same,Array Heatmap signal (histone peptide microarray),"KDM5A (3); GST-tagged KDM5A (3), sheet Array Heatmap, each array performed twice",0.7199
same,Array Heatmap signal (histone peptide microarray),"RAG2; GST-tagged RAG2, sheet Array Heatmap, each array performed twice",0.3927
same,Array Heatmap signal (histone peptide microarray),"TAF3; GST-tagged TAF3, sheet Array Heatmap, each array performed twice",0.4004
same,Array Heatmap signal (histone peptide microarray),"ING5; GST-tagged ING5, sheet Array Heatmap, each array performed twice",0.3511
same,Array Heatmap signal (histone peptide microarray),"CHD4 (PPCC); GST-tagged CHD4 (PPCC = Dual PHD + Dual Chromodomain), sheet Array Heatmap, each array performed twice",0.5347
same,Array Heatmap signal (histone peptide microarray),"KDM5B (1); GST-tagged KDM5B (1), sheet Array Heatmap, each array performed twice",0.595
same,Array Heatmap signal (histone peptide microarray),"CHD5 (PCC); GST-tagged CHD5 (PCC = PHD + Dual Chromodomain), sheet Array Heatmap, each array performed twice",0.7098
same,Array Heatmap signal (histone peptide microarray),"MLL5; GST-tagged MLL5, sheet Array Heatmap, each array performed twice",0.5921
same,Array Heatmap signal (histone peptide microarray),"PHF23; GST-tagged PHF23, sheet Array Heatmap, each array performed twice",0.6826
same,Array Heatmap signal (histone peptide microarray),"DPF2 (PPC2W2); GST-tagged DPF2 (PPC2W2 = Dual PHD + C2W2-type Zn-finger), sheet Array Heatmap, each array performed twice",0.6346
same,Array Heatmap signal (histone peptide microarray),"ING1; GST-tagged ING1, sheet Array Heatmap, each array performed twice",0.6509
same,Array Heatmap signal (histone peptide microarray),"PHRF1 (RP); GST-tagged PHRF1 (RP), sheet Array Heatmap, each array performed twice",0.5931
same,Array Heatmap signal (histone peptide microarray),"ING4; GST-tagged ING4, sheet Array Heatmap, each array performed twice",0.4671
same,Array Heatmap signal (histone peptide microarray),"MORC3 (CW); GST-tagged MORC3 (CW = CW-type Zn-finger), sheet Array Heatmap, each array performed twice",0.6581
same,Array Heatmap signal (histone peptide microarray),"ING2; GST-tagged ING2, sheet Array Heatmap, each array performed twice",0.7129
same,Array Heatmap signal (histone peptide microarray),"PHF8; GST-tagged PHF8, sheet Array Heatmap, each array performed twice",0.4748
same,Array Heatmap signal (histone peptide microarray),"TRIM66 (PB); GST-tagged TRIM66 (PB = PHD + Bromodomain), sheet Array Heatmap, each array performed twice",0.6398
same,Array Heatmap signal (histone peptide microarray),"DIDO1; GST-tagged DIDO1, sheet Array Heatmap, each array performed twice",0.8235
same,Array Heatmap signal (histone peptide microarray),"KDM4C (TTP); GST-tagged KDM4C (TTP = Tandem Tudor domain + PHD), sheet Array Heatmap, each array performed twice",0.4492
same,Array Heatmap signal (histone peptide microarray),"PHF21A; GST-tagged PHF21A, sheet Array Heatmap, each array performed twice",0.4382
same,Array Heatmap signal (histone peptide microarray),"CHD5 (PPCC); GST-tagged CHD5 (PPCC = Dual PHD + Dual Chromodomain), sheet Array Heatmap, each array performed twice",0.5253
same,Array Heatmap signal (histone peptide microarray),"KDM5A (1); GST-tagged KDM5A (1), sheet Array Heatmap, each array performed twice",0.4202
same,Array Heatmap signal (histone peptide microarray),"KDM5B (3); GST-tagged KDM5B (3), sheet Array Heatmap, each array performed twice",0.5774
same,Array Heatmap signal (histone peptide microarray),"SP140L; GST-tagged SP140L, sheet Array Heatmap, each array performed twice",0.3079
same,Array Heatmap signal (histone peptide microarray),"BAZ2B; GST-tagged BAZ2B, sheet Array Heatmap, each array performed twice",0.4481
same,Array Heatmap signal (histone peptide microarray),"BPTF (PB); GST-tagged BPTF (PB = PHD + Bromodomain), sheet Array Heatmap, each array performed twice",0.3833
same,Array Heatmap signal (histone peptide microarray),"ING3; GST-tagged ING3, sheet Array Heatmap, each array performed twice",0.5192
same,Array Heatmap signal (histone peptide microarray),"AIRE (PP); GST-tagged AIRE (PP), sheet Array Heatmap, each array performed twice",0.3953
H3K4me2 + T6p: H3 1-20,"Array Heatmap signal, KDM7A",KDM7A; [1],0.3717
same,"Array Heatmap signal, PHF13",PHF13; [1],0.5699
same,"Array Heatmap signal, PHF2",PHF2; [1],0.5776
same,"Array Heatmap signal, KDM5A (3)",KDM5A (3); [1],0.5519
same,"Array Heatmap signal, RAG2",RAG2; [1],0.2424
same,"Array Heatmap signal, TAF3",TAF3; [1],0.2971
same,"Array Heatmap signal, ING5",ING5; [1],0.3133
same,"Array Heatmap signal, CHD4 (PPCC)",CHD4 (PPCC); [1],0.5639
same,"Array Heatmap signal, KDM5B (1)",KDM5B (1); [1],0.6237
same,"Array Heatmap signal, CHD5 (PCC)",CHD5 (PCC); [1],0.7961
same,"Array Heatmap signal, MLL5",MLL5; [1],0.5839
same,"Array Heatmap signal, PHF23",PHF23; [1],0.5061
same,"Array Heatmap signal, DPF2 (PPC2W2)",DPF2 (PPC2W2); [1],0.6113
same,"Array Heatmap signal, ING1",ING1; [1],0.5538
same,"Array Heatmap signal, PHRF1 (RP)",PHRF1 (RP); [1],0.4464
same,"Array Heatmap signal, ING4",ING4; [1],0.4083
same,"Array Heatmap signal, MORC3 (CW)",MORC3 (CW); [1],0.4606
same,"Array Heatmap signal, ING2",ING2; [1],0.6785
same,"Array Heatmap signal, PHF8",PHF8; [1],0.3931
same,"Array Heatmap signal, TRIM66 (PB)",TRIM66 (PB); [1],0.586
same,"Array Heatmap signal, DIDO1",DIDO1; [1],0.7205
same,"Array Heatmap signal, KDM4C (TTP)",KDM4C (TTP); [1],0.4526
same,"Array Heatmap signal, PHF21A",PHF21A; [1],0.4239
same,"Array Heatmap signal, CHD5 (PPCC)",CHD5 (PPCC); [1],0.4881
same,"Array Heatmap signal, KDM5A (1)",KDM5A (1); [1],0.3957
same,"Array Heatmap signal, KDM5B (3)",KDM5B (3); [1],0.4514
same,"Array Heatmap signal, SP140L",SP140L; [1],0.3405
same,"Array Heatmap signal, BAZ2B",BAZ2B; [1],0.3939
same,"Array Heatmap signal, BPTF (PB)",BPTF (PB); [1],0.3354
same,"Array Heatmap signal, ING3",ING3; [1],0.4685
same,"Array Heatmap signal, AIRE (PP)",AIRE (PP); [1],0.3956
"H3K4me3 (1-7): H3 1-7 (ART[Lys(Me3)]QTA; UniProt P68431 2-8, looked up, fragment)",Array Heatmap value (peptide array signal),"KDM7A; KDM7A, sheet ""Array Heatmap"", each array performed twice",0.7221
same,Array Heatmap value (peptide array signal),"PHF13; PHF13, sheet ""Array Heatmap"", each array performed twice",0.6272
same,Array Heatmap value (peptide array signal),"PHF2; PHF2, sheet ""Array Heatmap"", each array performed twice",0.4609
same,Array Heatmap value (peptide array signal),"KDM5A (3); KDM5A (3), sheet ""Array Heatmap"", each array performed twice",0.5067
same,Array Heatmap value (peptide array signal),"RAG2; RAG2, sheet ""Array Heatmap"", each array performed twice",0.3345
same,Array Heatmap value (peptide array signal),"TAF3; TAF3, sheet ""Array Heatmap"", each array performed twice",0.3574
same,Array Heatmap value (peptide array signal),"ING5; ING5, sheet ""Array Heatmap"", each array performed twice",0.4084
same,Array Heatmap value (peptide array signal),"CHD4 (PPCC); CHD4 (PPCC), sheet ""Array Heatmap"", each array performed twice",0.5649
same,Array Heatmap value (peptide array signal),"KDM5B (1); KDM5B (1), sheet ""Array Heatmap"", each array performed twice",0.7094
same,Array Heatmap value (peptide array signal),"CHD5 (PCC); CHD5 (PCC), sheet ""Array Heatmap"", each array performed twice",0.8146
same,Array Heatmap value (peptide array signal),"MLL5; MLL5, sheet ""Array Heatmap"", each array performed twice",0.7048
same,Array Heatmap value (peptide array signal),"PHF23; PHF23, sheet ""Array Heatmap"", each array performed twice",0.5369
same,Array Heatmap value (peptide array signal),"DPF2 (PPC2W2); DPF2 (PPC2W2), sheet ""Array Heatmap"", each array performed twice",0.6324
same,Array Heatmap value (peptide array signal),"ING1; ING1, sheet ""Array Heatmap"", each array performed twice",0.5185
same,Array Heatmap value (peptide array signal),"PHRF1 (RP); PHRF1 (RP), sheet ""Array Heatmap"", each array performed twice",0.3886
same,Array Heatmap value (peptide array signal),"ING4; ING4, sheet ""Array Heatmap"", each array performed twice",0.4911
same,Array Heatmap value (peptide array signal),"MORC3 (CW); MORC3 (CW), sheet ""Array Heatmap"", each array performed twice",0.489
same,Array Heatmap value (peptide array signal),"ING2; ING2, sheet ""Array Heatmap"", each array performed twice",0.6464
same,Array Heatmap value (peptide array signal),"PHF8; PHF8, sheet ""Array Heatmap"", each array performed twice",0.544
same,Array Heatmap value (peptide array signal),"TRIM66 (PB); TRIM66 (PB), sheet ""Array Heatmap"", each array performed twice",0.5289
same,Array Heatmap value (peptide array signal),"DIDO1; DIDO1, sheet ""Array Heatmap"", each array performed twice",0.6423
same,Array Heatmap value (peptide array signal),"KDM4C (TTP); KDM4C (TTP), sheet ""Array Heatmap"", each array performed twice",0.5656
same,Array Heatmap value (peptide array signal),"PHF21A; PHF21A, sheet ""Array Heatmap"", each array performed twice",0.4644
same,Array Heatmap value (peptide array signal),"CHD5 (PPCC); CHD5 (PPCC), sheet ""Array Heatmap"", each array performed twice",0.5698
same,Array Heatmap value (peptide array signal),"KDM5A (1); KDM5A (1), sheet ""Array Heatmap"", each array performed twice",0.4902
same,Array Heatmap value (peptide array signal),"KDM5B (3); KDM5B (3), sheet ""Array Heatmap"", each array performed twice",0.5187
same,Array Heatmap value (peptide array signal),"SP140L; SP140L, sheet ""Array Heatmap"", each array performed twice",0.3724
same,Array Heatmap value (peptide array signal),"BAZ2B; BAZ2B, sheet ""Array Heatmap"", each array performed twice",0.5069
same,Array Heatmap value (peptide array signal),"BPTF (PB); BPTF (PB), sheet ""Array Heatmap"", each array performed twice",0.3708
same,Array Heatmap value (peptide array signal),"ING3; ING3, sheet ""Array Heatmap"", each array performed twice",0.472
same,Array Heatmap value (peptide array signal),"AIRE (PP); AIRE (PP), sheet ""Array Heatmap"", each array performed twice",0.5351
